The subject of one test is S. aureus (ATCC 29213). Put plainly: Zone of inhibition screen, 96 well agar array format. The test is classed as cell-based. Details: scale not given here. In a few lines:
(§1)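 Antibacterial testing on a 96-well agar array; each compound screened separately.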

In test [1] the test system is S. epidermidis (ATCC 12228). The test is described as above. Type of test: cell-based. Details: scale not given here. In a few lines: as §1
[2] abbreviates: zone of inhibition relative to 1 mg/ml p-chlorobiphenylvancomycin.
[3] abbreviates: zone of inhibition relative to 1 mg/ml stock solution of p-chlorobiphenylvancomycin.

We go through nine molecules from patent publication US6518243B1, “Desleucyl glycopeptide antibiotics and methods of making same” (Trustees of Princeton University, priority 1999, dated 2003).

Molecules are shown by their SMILES.

As to `CC1OC(OC2C(Oc3c4cc5cc3Oc3ccc(cc3Cl)C(O)C3NC(=O)C(NC(=O)C5NC(=O)C(CC(N)=O)NC(=O)C(NC(=O)c5ccc(O)cc5)C(O)c5ccc(c(Cl)c5)O4)c4ccc(O)c(c4)-c4c(O)cc(O)cc4C(C(=O)O)NC3=O)OC(CO)C(O)C2O)CC(C)(NCc2ccc(-c3ccc(Cl)cc3)cc2)C1O` (stereo not drawn) [Compound 271], the “zone score, S. aureus ATCC 29213” value in the test on S. aureus (ATCC 29213) (setting [2]) came to 2. For the same molecule, in test [1] (setting [2]), the “zone score, S. epidermidis ATCC 12228” value amounted to 2.

Take `CC1OC(OC2C(Oc3c4cc5cc3Oc3ccc(cc3Cl)C(O)C3NC(=O)C(NC(=O)C5NC(=O)C(CC(N)=O)NC(=O)C(NC(=O)C5CCCO5)C(O)c5ccc(c(Cl)c5)O4)c4ccc(O)c(c4)-c4c(O)cc(O)cc4C(C(=O)O)NC3=O)OC(CO)C(O)C2O)CC(C)(NCc2ccc(-c3ccc(Cl)cc3)cc2)C1O` (stereo not drawn) [Compound 316]: the “zone score, S. aureus ATCC 29213” value in the test with S. aureus (ATCC 29213) (setting [2]) amounted to 2. Further, in test [1] (setting [2]), the “zone score, S. epidermidis ATCC 12228” value came out at 2.

In the case of `CC1OC(OC2C(Oc3c4cc5cc3Oc3ccc(cc3Cl)C(O)C3NC(=O)C(NC(=O)C5NC(=O)C(CC(N)=O)NC(=O)C(NC(=O)c5cc(=O)[nH]c(=O)[nH]5)C(O)c5ccc(c(Cl)c5)O4)c4ccc(O)c(c4)-c4c(O)cc(O)cc4C(C(=O)O)NC3=O)OC(CO)C(O)C2O)CC(C)(NCc2ccc(-c3ccc(Cl)cc3)cc2)C1O` (stereo not drawn) [Compound 198], the “zone score, S. aureus ATCC 29213” value with S. aureus (ATCC 29213) (setting [3]) was determined as 2. Moreover, the “zone score, S. epidermidis ATCC 12228” value in test [1] (setting [3]) stood at 2.

With `CCCCCCCCCCCCCC(=O)NCC(=O)N[C@H]1C(=O)N[C@@H](CC(N)=O)C(=O)N[C@H]2C(=O)N[C@H]3C(=O)N[C@H](C(=O)N[C@@H](C(=O)O)c4cc(O)cc(O)c4-c4cc3ccc4O)[C@H](O)c3ccc(c(Cl)c3)Oc3cc2cc(c3O[C@@H]2O[C@H](CO)[C@@H](O)[C@H](O)[C@H]2O[C@@H]2C[C@@](C)(NCc3ccc(-c4ccc(Cl)cc4)cc3)[C@@H](O)[C@@H](C)O2)Oc2ccc(cc2Cl)[C@H]1O` [Compound 22], the “zone score, S. aureus ATCC 29213” value in the test on S. aureus (ATCC 29213) (setting [3]) is reported as 2. In test [1] (setting [3]), the “zone score, S. epidermidis ATCC 12228” value is reported as 2.

With `CC(=O)OCC(=O)NC1C(=O)NC(CC(N)=O)C(=O)NC2C(=O)NC3C(=O)NC(C(=O)NC(C(=O)O)c4cc(O)cc(O)c4-c4cc3ccc4O)C(O)c3ccc(c(Cl)c3)Oc3cc2cc(c3OC2OC(CO)C(O)C(O)C2OC2CC(C)(NCc3ccc(-c4ccc(Cl)cc4)cc3)C(O)C(C)O2)Oc2ccc(cc2Cl)C1O` (stereo not drawn) [Compound 117], in the test on S. aureus (ATCC 29213) (setting [3]), the “zone score, S. aureus ATCC 29213” value is on record as 2. In test [1] (setting [3]), the “zone score, S. epidermidis ATCC 12228” value was 2.

As for `CC1OC(OC2C(Oc3c4cc5cc3Oc3ccc(cc3Cl)C(O)C3NC(=O)C(NC(=O)C5NC(=O)C(CC(N)=O)NC(=O)C(NC(=O)c5ccccc5F)C(O)c5ccc(c(Cl)c5)O4)c4ccc(O)c(c4)-c4c(O)cc(O)cc4C(C(=O)O)NC3=O)OC(CO)C(O)C2O)CC(C)(NCc2ccc(-c3ccc(Cl)cc3)cc2)C1O` (stereo not drawn) [Compound 238], the “zone score, S. aureus ATCC 29213” value with S. aureus (ATCC 29213) (setting [2]) amounted to 2. Moreover, the “zone score, S. epidermidis ATCC 12228” value in test [1] (setting [2]) came to 2.

With `CSCCC(N)C(O)CC(=O)NC1C(=O)NC(CC(N)=O)C(=O)NC2C(=O)NC3C(=O)NC(C(=O)NC(C(=O)O)c4cc(O)cc(O)c4-c4cc3ccc4O)C(O)c3ccc(c(Cl)c3)Oc3cc2cc(c3OC2OC(CO)C(O)C(O)C2OC2CC(C)(NCc3ccc(-c4ccc(Cl)cc4)cc3)C(O)C(C)O2)Oc2ccc(cc2Cl)C1O` (stereo not drawn) [Compound 31], the “zone score, S. aureus ATCC 29213” value in the test with S. aureus (ATCC 29213) (setting [3]) worked out at 2. In addition, the “zone score, S. epidermidis ATCC 12228” value in test [1] (setting [3]) worked out at 2.

In the case of `CC1OC(OC2C(Oc3c4cc5cc3Oc3ccc(cc3Cl)C(O)C3NC(=O)C(NC(=O)C5NC(=O)C(CC(N)=O)NC(=O)C(NC(=O)CC(N)C(N)=O)C(O)c5ccc(c(Cl)c5)O4)c4ccc(O)c(c4)-c4c(O)cc(O)cc4C(C(=O)O)NC3=O)OC(CO)C(O)C2O)CC(C)(NCc2ccc(-c3ccc(Cl)cc3)cc2)C1O` (stereo not drawn) [Compound 74], the “zone score, S. aureus ATCC 29213” value in the test on S. aureus (ATCC 29213) (setting [3]) came to 2. The “zone score, S. epidermidis ATCC 12228” value in test [1] (setting [3]) is 2.

`CC1OC(OC2C(Oc3c4cc5cc3Oc3ccc(cc3Cl)C(O)C3NC(=O)C(NC(=O)C5NC(=O)C(CC(N)=O)NC(=O)C(NC(=O)C=Cc5ccco5)C(O)c5ccc(c(Cl)c5)O4)c4ccc(O)c(c4)-c4c(O)cc(O)cc4C(C(=O)O)NC3=O)OC(CO)C(O)C2O)CC(C)(NCc2ccc(-c3ccc(Cl)cc3)cc2)C1O` (stereo not drawn) [Compound 244]: the “zone score, S. aureus ATCC 29213” value in the test on S. aureus (ATCC 29213) (setting [2]) was found to be 2. In test [1] (setting [2]), the “zone score, S. epidermidis ATCC 12228” value is reported as 2.
